Test results from patent US5760036A, “Aminediol protease inhibitors” (E. R. Squibb & Sons, Inc., priority 1995, dated 1998).

Target: T1, HIV protease (Human immunodeficiency virus type 1 group M subtype B, UniProt P04585)
T1 construct: and purified protease
Experiment: HIV Protease Assay
Assay type: biochemical
Details: 4% DMSO, 450 μM substrate, pH 5.5, 30 minutes at 37° C., RP-HPLC; for inhibition at 10 µM: pH 5.5, 10 μM inhibitor, read-out: HIV Protease % Inhibition at 10 μM
In short: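 Purified protease cleaved 450 μM octapeptide substrate in 50 mM sodium acetate pH 5.5 with 100 μg/ml BSA for 30 minutes at 37° C; product analyzed by reverse-phase HPLC at UV220 after H3PO4 quench. Inhibitors tested at final 10 μM with 4% DMSO.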

**Q.** Which inhibition at 10 µM does the source give for `CC(C)(C)OC(=O)N[C@@H](Cc1ccccc1)[C@H](O)CNC[C@@H](O)[C@H](Cc1ccccc1)NC(=O)OC(C)(C)COCc1ccccc1` [Compound 157, [1S-(1R*,2S*)]-[Iminobis[2-hydroxy-1-(phenylmethyl)-3,1-propanediyl)]biscarbamic acid, 1,1-dimethylethyl 1,1-dimethyl-2-(phenylmethoxy)-ethyl ester] here?
**A.** The inhibition at 10 µM was 90%.

**Q.** How did the inhibition at 10 µM turn out when `CC(C)(C)OC(=O)N[C@@H](Cc1ccccc1)[C@H](O)CNC[C@@H](O)[C@H](Cc1ccccc1)NC(=O)[C@H](CCCCN)NC(=O)OCc1ccccc1` [Compound 89, [S-[1R*,2S*(2S*,3R*)[[-N-[3-[[3-[[(1,1-Dimethylethoxy)carbonyl]amino]-2-hydroxy-4-phenylbutyl]amino]-2-hydroxy-1-(phenylmethyl)-propyl]-N2-[(phenylmethoxy)carbonyl]-L-lysinamide] was run?
**A.** The inhibition at 10 µM was 23%.

**Q.** Which inhibition at 10 µM does the source give for `CC(C)(C)OC(=O)N[C@@H](Cc1ccccc1)[C@H](O)CNC[C@@H](O)[C@H](Cc1ccccc1)N[S+]([O-])C(C)(C)C` (stereo partly drawn) [Compound 182, [1S-[1R*,2S*(2S*,3R*)]]-[3-[[(1,1-Dimethylethyl)-sulfinyl]amino-2-hydroxy-4-phenylbutyl]amino]2-hydroxy-1-(phenylmethyl)propyl]carbamic acid, 1,1-dimethylethyl ester] here?
**A.** Its inhibition at 10 µM is 41%.

**Q.** `CC(C)(C)OC(=O)N[C@@H](Cc1ccccc1)[C@H](O)CNC[C@@H](O)[C@@H](Cc1ccccc1)NC(=O)OC(C)(C)C` [Compound 26i, [1R-[1R*,2R*(2R*,3S*)]]-3-[[3-[[(1,1-Dimethylethoxy)carbonyl]amino]-2-hydroxy-4-phenylbutyl]amino]-2-hydroxy-1-(phenylmethyl)propyl]carbamic acid, 1,1-dimethylethyl ester] was tested. Which inhibition at 10 µM did it give?
**A.** The inhibition at 10 µM was 57%.

**Q.** With `CC(C)[C@H](N)C(=O)N[C@@H](Cc1ccccc1)[C@H](O)CNC[C@@H](O)[C@H](Cc1ccccc1)NC(=O)[C@@H](N)C(C)C` [Compound 43, [S-(1S*,2R*)]-N,N'-[Iminobis[2-hydroxy-1-(phenylmethyl)-3,1-propanediyl]]bis-L-valinamide] as the compound, how does the inhibition at 10 µM read?
**A.** Its inhibition at 10 µM is 21%.

**Q.** With `CC(C)(C)OC(=O)N[C@@H](Cc1ccccc1)[C@H](O)CNC[C@@H](O)[C@H](Cc1ccccc1)NC(=O)C1(O)COCC1(C)C` (single isomer, unassigned; isomer b) [Compound 365, [1S-[1R*,2S*(2S*,3R*)]]-[2-Hydroxy-3-[[tetrahydro-3-hydroxy-4,4-dimethyl-3-furanyl)carbonyl]amino]-4-phenylbutyl]amino]-l-(phenylmethyl)-propyl]carbamic acid, 1,1-dimethylethyl ester, Isomer B] as the compound, how does the “HIV Protease % Inhibition at 10 μM” value (10 μM inhibitor) read?
**A.** Its value is 72%.

**Q.** How did the inhibition at 10 µM turn out when `CC(C)[C@H](N)C(=O)N[C@@H](Cc1ccccc1)[C@H](O)CNC[C@@H](O)[C@H](Cc1ccccc1)NC(=O)OC(C)(C)C` [Compound 59, [S-[1R*,2S*(2S*,3R*)-N-[3 [[3-[[(1,1-Dimethylethoxy)carbonyl]amino]-2-hydroxy-4-phenylbutyl]amino]-2-hydroxy-1-(phenylmethyl)-propyl-L-valinamide] was run?
**A.** The inhibition at 10 µM was 45%.

**Q.** How did the inhibition at 10 µM turn out when `CC(C)(C)OC(=O)N[C@@H](Cc1ccccc1)[C@H](O)CNC[C@@H](O)[C@H](Cc1ccccc1)NC(=O)C(C)(C)C` [Compound 269, [1S-[1R*,2S*(2S*,3R*)]]-[3-[[3-[(2,2-Dimethyl-1-oxo-propyl)amino]-2-hydroxy-4-phenylbutyl]amino]-2-hydroxy-1-(phenylmethyl)propyl]carbamic acid, 1,1-dimethylethyl ester] was run?
**A.** The inhibition at 10 µM was 61%.

**Q.** How did the inhibition at 10 µM turn out when `CC(C)(C)OC(=O)N[C@@H](Cc1ccccc1)[C@H](O)CNC[C@@H](O)[C@H](Cc1ccccc1)NC(=O)[C@H](O)c1ccccc1` [Compound 377, [1S-[1R*,2S*[2S*, 3R*(S*)]]]-[3-[[3-[2-Hydroxy-1-oxo-2-phenylethyl)amino]-2-hydroxy-4-phenylbutyl]amino]-2-hydroxy-1-(phenylmethyl)propyl]carbamic acid, 1-dimethylethyl ester] was run?
**A.** Its inhibition at 10 µM is 95%.
